The values below come from patent US20110207775A1, “AGENT THAT MODULATES PHYSIOLOGICAL CONDITION OF PESTS, INVOLVED IN INSECT VESICLE-FUSING ATPASE ACTIVITY” (SUMITOMO CHEMICAL COMPANY, LIMITED, priority 2006, published 2011).

One assay relates to Aphis gossypii. Put plainly: Pesticidal activity test, cotton aphid reared on artificial feed containing test compound. It is filed as in vivo. To be noted: same manner as Example 9: 50 ppm in artificial feed, 6 days, controlling value of 30% or more = pesticidal activity.
Assay [1] addresses cotton aphid vesicle-fusing ATPase (Aphis gossypii, UniProt A0A9P0IYS6). Kind of assay: Inhibition of cotton aphid vesicle-fusing ATPase activity (Kinase-Glo luminescent assay of ATP not hydrolyzed). Format: biochemical. To be noted: for pIC50: 8 concentrations from 100 μM to 0.03 μM, calculated with XLfit, read-out: Activity of inhibiting vesicle-fusing ATPase activity (IC50). The method, then: Selection of a compound which modulates a vesicle-fusing ATPase activity was performed in a system for measuring and evaluating the vesicle-fusing ATPase activity, the activity being modulated by adding a test compound to an in vitro reaction system using the cotton aphid vesicle-fusing ATPase prepared in Example 7.
As for a measurement of the cotton aphid vesicle-fusing ATPase activity, after the enzymatic reaction of vesicle-fusing ATPase using ATP as a substrate, an amount of ATP that was not hydrolyzed was measured as the amount of luminescence of luciferase using Kinase-Glo™ Luminescent Kinase Assay (manufactured by Promega), according to a method described in the instruction attached to the kit. The vesicle-fusing ATPase activity was calculated from the amount of luminescence.
For measuring the activity, the activity of the aphid vesicle-fusing ATPase was measured when a test compound dissolved in DMSO was contained to a final concentration of 10 μM. In addition, the activity of the aphid vesicle-fusing ATPase was measured when DMSO was contained in place of a test compound. Then, a ratio (%) of a measured value of the activity of the aphid vesicle-fusing ATPase when a test compound dissolved in DMSO was contained, relative to a measured value of the activity of aphid vesicle-fusing ATPase when DMSO was contained in place of the test compound was calculated, and a value obtained by subtracting the calculated value from 100% was adopted as an inhibition degree (%). The results in each test compound are shown in Table 4 in Example 9 together with results of Example 9.
The activity of aphid vesicle-fusing ATPase was measured when a test compound dissolved in DMSO was contained to a final concentration of each concentration of 100 μM, 30 μM, 10 μM, 3 μM, 1 μM, 0.3 μM, 0.1 μM or 0.03 μM. IC50 (μM) was calculated from the result of each concentration at each test compound using a concentration-dependent test analyzing software XL fit (manufactured by idbs). The results are shown in Table 5 in Example 10 together with results of Example 9.

In the next assay the test system is vesicle-fusing ATPase. To be noted: ATPase inhibitor; Steel et al. 1999, Morgan et al. 1994; cited from earlier work.
Setting [2] is: test compound in DMSO at final concentration 10 μM, relative to DMSO control.

pIC50: −log10 of the molar value. A value given as a limit tells only on which side of the number the result lay.

Chain of cotton aphid vesicle-fusing ATPase (A0A9P0IYS6 1-478): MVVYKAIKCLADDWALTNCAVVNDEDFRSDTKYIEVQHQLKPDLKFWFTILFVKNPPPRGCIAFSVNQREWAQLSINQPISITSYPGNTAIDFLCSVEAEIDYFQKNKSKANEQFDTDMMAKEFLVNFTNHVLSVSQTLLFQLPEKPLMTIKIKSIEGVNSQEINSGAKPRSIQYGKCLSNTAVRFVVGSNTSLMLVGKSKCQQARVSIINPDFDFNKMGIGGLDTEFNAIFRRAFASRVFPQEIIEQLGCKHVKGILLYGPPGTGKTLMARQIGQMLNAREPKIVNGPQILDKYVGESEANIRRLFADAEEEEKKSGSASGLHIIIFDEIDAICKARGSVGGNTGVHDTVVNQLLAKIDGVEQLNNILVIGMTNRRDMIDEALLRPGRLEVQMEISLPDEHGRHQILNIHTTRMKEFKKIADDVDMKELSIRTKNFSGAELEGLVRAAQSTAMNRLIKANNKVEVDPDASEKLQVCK

Broadly, the pIC50 is the negative decadic logarithm of the IC50, by convention in mol/L. For the compound Hypocrellin B, in the assay on Aphis gossypii, the “Determination result of pesticidal activity (Result of Example 10)” value is “Absence of”. Besides, the negative-log IC50 (pIC50) in assay [1] was under 4.00. On the same counts, the results for `Cc1ccc2c(c1)C(=O)C1(O)CCN(c3ccccc3)C1=N2` (racemic) [(±)-Blebbistatin] are “Absence of” and under 4.00. For `CCN1C(=O)C=CC1=O` [N-ethylmaleimide], the “Activity against vesicle-fusing ATPase” value in the assay with vesicle-fusing ATPase is recorded as “show also activity against vesicle-fusing ATPase”.

For `CCCCCCCCCCCCC(=O)N1CCCCC1CNC(=O)[C@@H](N)CCCCN.Cl.Cl` (some centres unmarked) [NPC15437 dihydrochloride], in assay [1], the negative logarithm of the IC50 (pIC50) is 4.72. Moreover, in assay [1] (setting [2]), the “Activity of inhibiting vesicle-fusing ATPase activity (inhibition degree (%) at 10 μm addition)” value came to 35%. `Clc1ccc(C(c2ccc(Cl)cc2)n2cc[n+](CC(OCc3ccc(Cl)cc3Cl)c3ccc(Cl)cc3Cl)c2)cc1` (centres unmarked) [Calmidazolium Chloride]: the negative-log IC50 (pIC50) in assay [1] was 5.33. Besides, the “Activity of inhibiting vesicle-fusing ATPase activity (inhibition degree (%) at 10 μm addition)” value in assay [1] (setting [2]) is recorded as 80%. The inhibition is the share of the control response that was lost under treatment. Take `Cc1ccc(C(=O)Nc2ccc(S(=O)(=O)O)c3cc(S(=O)(=O)O)cc(S(=O)(=O)O)c23)cc1NC(=O)c1cccc(NC(=O)Nc2cccc(C(=O)Nc3cc(C(=O)Nc4ccc(S(=O)(=O)O)c5cc(S(=O)(=O)O)cc(S(=O)(=O)O)c45)ccc3C)c2)c1` [Suramin]: the negative-log IC50 (pIC50) in assay [1] was 5.72. In assay [1] (test compound in DMSO at final concentration 10 μM, relative to DMSO control, read-out: Activity of inhibiting vesicle-fusing ATPase activity (inhibition degree (%) at 10 μm addition)), the inhibition at 10 µM turned out to be 100%.
